US10239870B2, “Dopamine D3 receptor antagonists” (priority 2014, dated 2019)
Where a name gives a salt, the structure may show the parent alone.

What follows are compounds tested against hD2 recombinant receptor (human dopamine receptor type 2, long variant, CHO-Gα16-hD2L cells) (Homo sapiens (Human), UniProt P14416) (assay: cell-based). Settings: D2 fpKi, functional pKi; antagonism of dopamine EC80 calcium response (FLIPR).
Compound Cn1c(OCCCN2CC[C@]3(C[C@H]3c3ccc(C(F)(F)F)cc3)C2)nnc1C1CCOCC1 [Example 303, (1S,3S/1R,3R)-5-(3-{[4-methyl-5-(oxan-4-yl)-4H-1,2,4-triazol-3-yl]oxy}-propyl)-1-[4-(trifluoromethyl)phenyl]-5-azaspiro[2.4]heptane] has a Ki greater than 10000 nM. Compound Cn1c(SCCCN2CC[C@@]3(C[C@@H]3c3ccc(C(F)(F)F)cc3F)C2)nnc1C1CCOCC1 (single isomer, unassigned) [Example 74, (1S,3R or 1R,3S)-1-[2-fluoro-4-(trifluoromethyl)phenyl]-5-(3-{[4-methyl-5-(oxan-4-yl)-4H-1,2,4-triazol-3-yl]sulfanyl}propyl)-5-azaspiro[2.4]heptane hydrochloride] has a Ki of 1260 nM. Work on Cn1c(CCCCN2CC[C@]3(CC3c3ccc(C(F)(F)F)cc3)C2)nnc1C1CCOCC1 (stereo partly drawn) [Example 296, (1S,3S/1R,3R)-5-{4-[4-methyl-5-(oxan-4-yl)-4H-1,2,4-triazol-3-yl]butyl}-1-[4-(trifluoromethyl)phenyl]-5-azaspiro[2.4]heptane] yielded a Ki greater than 10000 nM. Work on Cc1ncoc1-c1nnc(SCCCN2CCC3(CC2)C[C@@H]3c2ccccc2)n1C (single isomer, unassigned) [Example 309, (1S or 1R)-6-(3-{[4-methyl-5-(4-methyl-1,3-oxazol-5-yl)-4H-1,2,4-triazol-3-yl]sulfanyl}propyl)-1-phenyl-6-azaspiro[2.5]octane hydrochloride] yielded a Ki of 1120 nM. In the case of Cn1c(CCCCN2CC[C@]3(C[C@@H]3c3ccc(C(F)(F)F)cc3F)C2)nnc1C1CCOCC1 (single isomer, unassigned) [Example 295, hydrochloride], the Ki is reported as 871 nM. Cn1c(SCCCN2CC[C@]3(C[C@@H]3c3ccc(C(F)(F)F)cc3F)C2)nnc1C1CCOCC1 (single isomer, unassigned) [Example 79, hydrochloride] was tested, and the Ki was 363 nM. Cn1c(SCCCN2CC[C@]3(CC3c3ccc(C(F)(F)F)cc3F)C2)nnc1-c1ccncn1 (stereo partly drawn) [Example 213, (1S,3S/1R,3R)-1-[2-fluoro-4-(trifluoromethyl)phenyl]-5-(3-{[4-methyl-5-(pyrimidin-4-yl)-4H-1,2,4-triazol-3-yl]sulfanyl}propyl)-5-azaspiro[2.4]heptane] showed a Ki of 81.3 nM. In the case of CC(=O)N1CCC(c2nnc(SCCCN3CC[C@]4(C[C@@H]4c4ccc(C(F)(F)F)cc4)C3)n2C)CC1 [Example 99, 1-{4-[4-methyl-5-({3-[(1R,3S/1S,R3)-1-[4-(trifluoromethyl)phenyl]-5-azaspiro[2.4]heptan-5-yl]propyl}sulfanyl)-4H-1,2,4-triazol-3-yl]piperidin-1-yl}ethan-1-one], the Ki is reported as 2240 nM. Compound Cn1c(SCCCN2CC[C@]3(CC3c3ccc(C(F)(F)F)cc3F)C2)nnc1C1CCOCC1 (single isomer, unassigned) [Example 76] has a Ki of 708 nM. Cn1c(CCCCN2CC[C@@]3(C[C@@H]3c3ccc(C(F)(F)F)cc3)C2)nnc1C1CCOCC1 (single isomer, unassigned) [Example 300, (1R,3R or 1S,3S)-5-{4-[4-methyl-5-(oxan-4-yl)-4H-1,2,4-triazol-3-yl]butyl}-1-[4-(trifluoromethyl)phenyl]-5-azaspiro[2.4]heptane hydrochloride] showed a Ki greater than 10000 nM. Compound Cc1ncoc1-c1nnc(CCCCN2CC[C@]3(CC3c3ccc(C(F)(F)F)cc3)C2)n1C (stereo partly drawn) [Example 301, (1R,3S/1S,3R)-5-{4-[4-methyl-5-(4-methyl-1,3-oxazol-5-yl)-4H-1,2,4-triazol-3-yl]butyl}-1-[4-(trifluoromethyl)phenyl]-5-azaspiro[2.4]heptane hydrochloride] has a Ki of 1450 nM. For Cn1c(SCCCN2CC[C@]3(C[C@@H]3c3ccc(C(F)(F)F)cc3)C2)nnc1-c1ccno1 [Example 229, (1R,3S/1S,3R)-5-(3-{[4-methyl-5-(1,2-oxazol-5-yl)-4H-1,2,4-triazol-3-yl]sulfanyl}propyl)-1-[4-(trifluoromethyl)phenyl]-5-azaspiro[2.4]heptane], the Ki was 2340 nM. Cn1c(SCCCN2CC[C@]3(CC3c3ccc(C(F)(F)F)cc3)C2)nnc1N1CCOCC1 (single isomer, unassigned) [Example 115] was tested, and the Ki was 97.7 nM. For Cn1c(CCCCN2CC[C@]3(C[C@H]3c3ccc(C(F)(F)F)cc3)C2)nnc1C1CCOCC1 (single isomer, unassigned) [Example 299, (1S,3S or 1R,3R)-5-{4-[4-methyl-5-(oxan-4-yl)-4H-1,2,4-triazol-3-yl]butyl}-1-[4-(trifluoromethyl)phenyl]-5-azaspiro[2.4]heptane hydrochloride], the Ki was greater than 10000 nM. Work on Cn1c(SCCCN2CC[C@]3(CC3c3ccc(C(F)(F)F)nc3)C2)nnc1C1CCOCC1 (stereo partly drawn) [Example 84, (1R,3S/1S,3R)-5-(3-{[4-methyl-5-(oxan-4-yl)-4H-1,2,4-triazol-3-yl]sulfanyl}propyl)-1-[6-(trifluoromethyl)pyridin-3-yl]-5-azaspiro[2.4]heptane] yielded a Ki greater than 10000 nM. Cc1ncoc1-c1nnc(SCCCN2CCC3(CCC3c3ccccc3)C2)n1C (single isomer, unassigned) [Example 321, (1R,4S or 1S,4R or 1S,4S or 1R,4R)-6-(3-{[4-methyl-5-(4-methyl-1,3-oxazol-5-yl)-4H-1,2,4-triazol-3-yl]sulfanyl}propyl)-1-phenyl-6-azaspiro[3.4]octane hydrochloride] showed a Ki of 2240 nM. Work on CC(=O)N1CCC(c2nnc(SCCCN3CC[C@]4(C[C@@H]4c4ccc(C(F)(F)F)cc4)C3)n2C)CC1 (single isomer, unassigned) [Example 100] yielded a Ki of 1170 nM. With Cn1c(SCCCN2CC[C@]3(CC3c3ccc(C(F)(F)F)cc3)C2)nnc1N1CCOCC1 (single isomer, unassigned) [Example 114, hydrochloride] the Ki was 1620 nM. Cn1c(SCCCN2CC[C@]3(C[C@H]3c3ccc(C(F)(F)F)cc3F)C2)nnc1C1CCOCC1 (single isomer, unassigned) [Example 75, (1R,3S or 1S,3R)-1-[2-fluoro-4-(trifluoromethyl)phenyl]-5-(3-{[4-methyl-5-(oxan-4-yl)-4H-1,2,4-triazol-3-yl]sulfanyl}propyl)-5-azaspiro[2.4]heptane hydrochloride] gave a Ki greater than 10000 nM.

Each compound was assayed against hD2 recombinant receptor (human dopamine receptor type 2, long variant, CHO-Gα16-hD2L membranes) (Homo sapiens (Human), UniProt P14416) (assay: not given). Settings: displacement of 0.08 nM [3H]-Spiperone.
In the case of Cn1c(SCCCN2CC[C@]3(CC3c3ccc(C(F)(F)F)cc3F)C2)nnc1-c1ccc(=O)[nH]c1 (stereo partly drawn) [Example 129, 5-[5-({3-[(1S,3S/1R,3R)-1-[2-fluoro-4-(trifluoromethyl)phenyl]-5-azaspiro[2.4]heptan-5-yl]propyl}sulfanyl)-4-methyl-4H-1,2,4-triazol-3-yl]-1,2-dihydropyridin-2-one], the “D2 pKi” value is reported as 6.35. Cn1c(SCCCN2CC[C@]3(CC3c3ccccc3C(F)(F)F)C2)nnc1-c1ccc(=O)[nH]c1 (stereo partly drawn) [Example 132, 5-[4-methyl-5-({3-[(1S,3S/1R,3R)-1-[2-(trifluoromethyl)phenyl]-5-azaspiro[2.4]heptan-5-yl]propyl}sulfanyl)-4H-1,2,4-triazol-3-yl]-1,2-dihydropyridin-2-one] was tested, and the “D2 pKi” value was 6.87. Cc1ccc(C(N)=O)nc1-c1nnc(SCCCN2CC[C@]3(C[C@@H]3c3ccc(C(F)(F)F)cc3)C2)n1C.Cl [Example 199, 5-methyl-6-[4-methyl-5-({3-[(1R,3S)-1-[4-(trifluoromethyl)phenyl]-5-azaspiro[2.4]heptan-5-yl]propyl}sulfanyl)-4H-1,2,4-triazol-3-yl]pyridine-2-carboxamide hydrochloride] was tested, and the “D2 pKi” value was 5.81. In the case of Cl.Cn1c(SCCCN2CC[C@]3(C[C@@H]3c3ccc(C(F)(F)F)cc3F)C2)nnc1-c1ccn(C)c(=O)c1 [Example 139, 4-[5-({3-[(1S,3S)-1-[2-fluoro-4-(trifluoromethyl)phenyl]-5-azaspiro[2.4]heptan-5-yl]propyl}sulfanyl)-4-methyl-4H-1,2,4-triazol-3-yl]-1-methyl-1,2-dihydropyridin-2-one hydrochloride], the “D2 pKi” value is reported as 5.83. For Cc1ncccc1-c1nnc(SCCCN2CC[C@]3(CC3c3ccccc3C(F)(F)F)C2)n1C.Cl.Cl (stereo partly drawn) [Example 168, (1S,3S/1R,3R)-5-(3-{[4-methyl-5-(2-methylpyridin-3-yl)-4H-1,2,4-triazol-3-yl]sulfanyl}propyl)-1-[2-(trifluoromethyl)phenyl]-5-azaspiro[2.4]heptane dihydrochloride], the “D2 pKi” value was 6.44. In the case of Cn1c(SCCCN2CC[C@]3(CC3c3ccc(C(F)(F)F)cc3)C2)nnc1-c1cccnc1F (stereo partly drawn) [Example 173, (1R,3S/1S,3R)-5-(3-{[5-(2-fluoropyridin-3-yl)-4-methyl-4H-1,2,4-triazol-3-yl]sulfanyl}propyl)-1-[4-(trifluoromethyl)phenyl]-5-azaspiro[2.4]heptane], the “D2 pKi” value is reported as 5.75. Cn1c(SCCCN2CC[C@]3(C[C@@H]3c3ccc(C(F)(F)F)cc3)C2)nnc1-c1cnc(C(N)=O)cn1 [Example 228, 5-[4-methyl-5-({3-[(1R,3S)-1-[4-(trifluoromethyl)phenyl]-5-azaspiro[2.4]heptan-5-yl]propyl}sulfanyl)-4H-1,2,4-triazol-3-yl]pyrazine-2-carboxamide] was tested, and the “D2 pKi” value was 6.33. For Cc1ncoc1-c1nnc(SCCCN2CC[C@]3(CC3c3ccc(C(F)(F)F)nc3)C2)n1C (stereo partly drawn) [Example 61, (1R,3S/1S,3R)-5-(3-{[4-methyl-5-(4-methyl-1,3-oxazol-5-yl)-4H-1,2,4-triazol-3-yl]sulfanyl}propyl)-1-[6-(trifluoromethyl)pyridin-3-yl]-5-azaspiro[2.4]heptane], the “D2 pKi” value was 5.63. For Cl.Cn1c(SCCCN2CC[C@]3(C[C@@H]3c3ccc(C(F)(F)F)cc3)C2)nnc1-c1ccc(-c2nnco2)cc1 [Example 274, (1R,3S)-5-[3-({4-methyl-5-[4-(1,3,4-oxadiazol-2-yl)phenyl]-4H-1,2,4-triazol-3-yl}sulfanyl)propyl]-1-[4-(trifluoromethyl)phenyl]-5-azaspiro[2.4]heptane], the “D2 pKi” value was 6.52. In the case of Cn1c(SCCCN2CC[C@]3(CC3c3ccc(F)cc3)C2)nnc1-c1ccc(=O)[nH]c1 (stereo partly drawn) [Example 131, 5-[5-({3-[(1R,3S/1S,3R)-1-(4-fluorophenyl)-5-azaspiro[2.4]heptan-5-yl]propyl}sulfanyl)-4-methyl-4H-1,2,4-triazol-3-yl]-1,2-dihydropyridin-2-one], the “D2 pKi” value is reported as 6.16.
